13 compounds from patent US20070004660A1, “Synergistic Modulation of Flt3 Kinase Using Alkylquinolines and Alkylquinazolines” (priority 2005, published 2007) can be followed below.

In the test the target is T1, wild-type FLT3 receptor (Homo sapiens, UniProt P36888).
T1 construct: host or cells: Baf3 (murine B cell lymphoma line), stably transfected
T1 sequence (P36888 27-993): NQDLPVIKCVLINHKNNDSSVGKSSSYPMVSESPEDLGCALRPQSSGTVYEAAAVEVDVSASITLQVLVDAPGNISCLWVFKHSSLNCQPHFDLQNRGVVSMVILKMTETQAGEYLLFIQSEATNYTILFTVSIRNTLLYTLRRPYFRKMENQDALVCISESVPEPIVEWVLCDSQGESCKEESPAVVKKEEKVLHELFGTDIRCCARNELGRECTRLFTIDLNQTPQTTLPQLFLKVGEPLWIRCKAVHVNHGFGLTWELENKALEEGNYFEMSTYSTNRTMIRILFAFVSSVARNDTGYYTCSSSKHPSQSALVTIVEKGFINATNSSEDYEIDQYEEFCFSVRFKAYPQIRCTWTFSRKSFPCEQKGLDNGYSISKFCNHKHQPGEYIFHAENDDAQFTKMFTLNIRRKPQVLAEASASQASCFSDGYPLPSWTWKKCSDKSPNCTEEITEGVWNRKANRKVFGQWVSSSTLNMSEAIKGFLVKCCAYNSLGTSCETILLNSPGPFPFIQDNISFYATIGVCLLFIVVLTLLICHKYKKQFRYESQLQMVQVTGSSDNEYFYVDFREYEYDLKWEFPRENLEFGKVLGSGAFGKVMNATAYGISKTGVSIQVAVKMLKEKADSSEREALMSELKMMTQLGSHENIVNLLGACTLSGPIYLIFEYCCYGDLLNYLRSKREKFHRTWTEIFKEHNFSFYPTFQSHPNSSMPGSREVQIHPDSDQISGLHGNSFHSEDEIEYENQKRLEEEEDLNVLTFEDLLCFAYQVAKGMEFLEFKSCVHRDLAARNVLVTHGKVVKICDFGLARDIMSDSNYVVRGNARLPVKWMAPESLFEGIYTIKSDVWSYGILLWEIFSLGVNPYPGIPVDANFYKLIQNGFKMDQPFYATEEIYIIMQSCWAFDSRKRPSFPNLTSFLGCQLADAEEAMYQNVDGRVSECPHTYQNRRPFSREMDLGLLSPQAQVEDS
Put plainly: Cell-based FLT3 receptor ELISA (FLT ligand-induced phosphorylation in Baf3 FLT3 cells). The note with it: 100 ng/mL Flt ligand, uncertainty ±20%. As for the experimental part:
Specific cellular inhibition of FLT ligand-induced wild-type FLT3 phosphorylation was measured in the following manner: Baf3 FLT3 cells overexpressing the FLT3 receptor were obtained from Dr. Michael Heinrich (Oregon Health and Sciences University). The Baf3 FLT3 cell lines were created by stable transfection of parental Baf3 cells (a murine B cell lymphoma line dependent on the cytokine IL-3 for growth) with wild-type FLT3. Cells were selected for their ability to grow in the absence of IL-3 and in the presence of FLT3 ligand. Baf3 cells were maintained in RPMI 1640 with 10% FBS, penn/strep and 10 ng/ml FLT ligand at 37° C., 5% CO2. To measure direct inhibition of the wild-type FLT3 receptor activity and phosphorylation a sandwich ELISA method was developed similar to those developed for other RTKs (see Sadick, M D, Sliwkowski, M X, Nuijens, A, Bald, L, Chiang, N, Lofgren, J A, Wong W L T. Analysis of Heregulin-Induced ErbB2 Phosphorylation with a High-Throughput Kinase Receptor Activation Enzyme-Linked Immunsorbent Assay, Analytical Biochemistry. 1996; 235:207-214 and Baumann C A, Zeng L, Donatelli R R, Maroney A C. Development of a quantitative, high-throughput cell-based enzyme-linked immunosorbent assay for detection of colony-stimulating factor-1 receptor tyrosine kinase inhibitors. J Biochem Biophys Methods. 2004; 60:69-79.). 200 μL of Baf3FLT3 cells (1×10^6 /mL) were plated in 96 well dishes in RPMI 1640 with 0.5% serum and 0.01 ng/mL IL-3 for 16 hours prior to 1 hour compound or DMSO vehicle incubation. Cells were treated with 100 ng/mL Flt ligand (R&D Systems Cat# 308-FK) for 10 min. at 37° C. Cells were pelleted, washed and lysed in 100 ul lysis buffer (50 mM Hepes, 150 mM NaCl, 10% Glycerol, 1% Triton-X-100, 10 mM NaF, 1 mM EDTA, 1.5 mM MgCl2, 10 mM NaPyrophosphate) supplemented with phosphatase (Sigma Cat# P2850) and protease inhibitors (Sigma Cat #P8340). Lysates were cleared by centrifugation at 1000×g for 5 minutes at 4° C. Cell lysates were transferred to white wall 96 well microtiter (Costar #9018) plates coated with 50 ng/well anti-FLT3 antibody (Santa Cruz Cat# sc-480) and blocked with SeaBlock reagent (Pierce Cat#37527). Lysates were incubated at 4° C. for 2 hours. Plates were washed 3× with 200 ul/well PBS/0.1% Triton-X-100. Plates were then incubated with 1:8000 dilution of HRP-conjugated anti-phosphotyrosine antibody (Clone 4G10, Upstate Biotechnology Cat#16-105) for 1 hour at room temperature. Plates were washed 3× with 200 ul/well PBS/0.1% Triton-X-100. Signal detection with Super Signal Pico reagent (Pierce Cat#37070) was done according to manufacturer's instruction with a Berthold microplate luminometer. All data points are an average of triplicate samples. […] Inhibition and IC50 data analysis was done with GraphPad Prism using a non-linear regression fit with a multiparamater, sigmoidal dose-response (variable slope) equation.
In turn, `O=C(Nc1ccc(N2CCOCC2)cc1)N1CCC(c2ncnc3cc(OCCN4CCOCC4)ccc23)CC1` [Example 96, 4-[7-(2-Morpholin-4-yl-ethoxy)-quinazolin-4-yl]-piperidine-1-carboxylic acid (4-morpholin-4-yl-phenyl)-amide] gave an IC50 of 243 nM.

`CC(C)Oc1ccc(NC(=O)N2CCC(c3ncnc4ccccc34)CC2)cc1` [Example 8, 4-Quinazolin-4-yl-piperidine-1-carboxylic acid (4-isopropoxy-phenyl)-amide]: half-maximal inhibition (IC50) required 851 nM. Compared with the last compound, the IC50 is about 3.5-fold higher.

`CC(=O)N1CCN(CCOc2ccc3c(C4CCN(C(=O)Nc5ccc(N6CCOCC6)cc5)CC4)ncnc3c2)CC1` [Example 97, 4-{7-[2-(4-Acetyl-piperazin-1-yl)-ethoxy]-quinazolin-4-yl}-piperidine-1-carboxylic acid (4-morpholin-4-yl-phenyl)-amide] yielded an IC50 of 36 nM.

Regarding `COc1cc2ncnc(C3CCN(C(=O)Nc4ccc(-c5ccc(Cl)nc5)cc4)CC3)c2cc1OC` [Example 60, 4-(6,7-Dimethoxy-quinazolin-4-yl)-piperidine-1-carboxylic acid [4-(6-chloro-pyridin-3-yl)-phenyl]-amide], the half-maximal inhibitory concentration (IC50) stood at 46 nM. This IC50 and that of the compound before are within 1.5-fold of each other.

As for `COc1cc2ncnc(C3CCN(C(=O)Nc4ccccc4)CC3)c2cc1OC` [Example 45, 4-(6,7-Dimethoxy-quinazolin-4-yl)-piperidine-1-carboxylic acid phenylamide], the IC50 was > 3000 nM.

Compound `CCN1CCN(CCCOc2ccc3c(C4CCN(C(=O)Nc5ccc(N6CCOCC6)cc5)CC4)ncnc3c2)CC1` [Example 115, 4-{7-[3-(4-Ethyl-piperazin-1-yl)-propoxy]-quinazolin-4-yl}-piperidine-1-carboxylic acid (4-morpholin-4-yl-phenyl)-amide] had an IC50 of 9 nM.

On to `O=C(Nc1ccc(N2CCOCC2)cc1)N1CCC(c2ncnc3cc(OCCCN4CCC[C@H]4CO)ccc23)CC1` [Example 119, (S)-4-{7-[3-(2-Hydroxymethyl-pyrrolidin-1-yl)-propoxy]-quinazolin-4-yl}-piperidine-1-carboxylic acid (4-morpholin-4-yl-phenyl)-amide], for which the IC50 was 37 nM.

As for `CCN(CC)CC#Cc1ccc2ncnc(C3CCN(C(=O)Nc4ccc(OC(C)C)cc4)CC3)c2c1` [Example 13, 4-[6-(3-Diethylamino-prop-1-ynyl)-quinazolin-4-yl]-piperidine-1-carboxylic acid (4-isopropoxy-phenyl)-amide], the IC50 was determined as 27 nM.

Take `O=C1CCCN1CCCOc1ccc2c(C3CCN(C(=O)Nc4ccc(N5CCCC5)nc4)CC3)ncnc2c1` [Example 89, 4-{7-[3-(2-Oxo-pyrrolidin-1-yl)-propoxy]-quinazolin-4-yl}-piperidine-1-carboxylic acid (6-pyrrolidin-1-yl-pyridin-3-yl)-amide]: inhibition was half-maximal at 1 nM (IC50).

As to `O=C(NCCCOc1ccc2c(C3CCN(C(=O)Nc4ccc(N5CCCC5)nc4)CC3)ncnc2c1)N1CCOCC1` [Example 112, Morpholine-4-carboxylic acid (3-{4-[1-(6-pyrrolidin-1-yl-pyridin-3-ylcarbamoyl)-piperidin-4-yl]-quinazolin-7-yloxy}-propyl)-amide], the IC50 was determined as 79 nM. This IC50 is about 79-fold higher than that of the compound before.

`O=C(Nc1ccc(N2CCOCC2)cc1)N1CCC(c2ncnc3cc(OCCCN4CCCCC4)ccc23)CC1` [Example 75] displayed a 50% inhibitory concentration (IC50) of 84 nM.

`O=C1CCCN1CCCOc1ccc2c(C3CCN(C(=O)Nc4ccc(N5CCOCC5)nc4)CC3)ncnc2c1` [Example 72, 4-{7-[3-(2-Oxo-pyrrolidin-1-yl)-propoxy]-quinazolin-4-yl}-piperidine-1-carboxylic acid (6-morpholin-4-yl-pyridin-3-yl)-amide] had an IC50 of 28 nM. Compared with the last compound, the IC50 is about 3-fold lower.

With `COc1cc2ncnc(C3CCN(C(=O)Nc4ccc(OC5CCCC5)nc4)CC3)c2cc1OC` [Example 69, 4-(6,7-Dimethoxy-quinazolin-4-yl)-piperidine-1-carboxylic acid (6-cyclopentyloxy-pyridin-3-yl)-amide], the IC50 is 29 nM.
